Test results: PubChem BioAssay AID248 (DTP/NCI, 2004)
“And” between values parts separate entries of the source, which are not always exact repeats. Equal values may be shown once. Inconclusive results and toxic doses are left out. Cut-off read from the data, not from the text of the source: active = T/C of 150% or more; inactive = T/C below 125%.

Tested on: L1210 leukemia ip in BDF1 mice, survival T/C
Test: NCI In Vivo Anticancer Drug Screen. Data for tumor model L1210 Leukemia (intraperitoneal) in B6D2F1 (BDF1) mice
Conditions: endpoint: mean survival time, higher = longer survival
Procedure, shortened: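 Transplantable tumor model; survival measured in treated vs vehicle control mice. Value = treated/control.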

[1] = dose: 100.0 mg/kg/injection, schedule: Q01DX009 (ip), vehicle: Klucel (hydroxypropylcellulose) (HPC)
[2] = dose: 100.0 mg/kg/injection, schedule: Q04DX003 (ip), vehicle: Klucel (hydroxypropylcellulose) (HPC)
[3] = dose: 200.0 mg/kg/injection, schedule: Q01DX009 (ip), vehicle: Klucel (hydroxypropylcellulose) (HPC)
[4] = dose: 200.0 mg/kg/injection, schedule: Q04DX003 (ip), vehicle: Klucel (hydroxypropylcellulose) (HPC)
[5] = dose: 400.0 mg/kg/injection, schedule: Q01DX009 (ip), vehicle: Klucel (hydroxypropylcellulose) (HPC)
[6] = dose: 400.0 mg/kg/injection, schedule: Q04DX003 (ip), vehicle: Klucel (hydroxypropylcellulose) (HPC)
[7] = dose: 100.0 mg/kg/injection, schedule: Q01DX001 (ip), vehicle: saline
[8] = dose: 200.0 mg/kg/injection, schedule: Q01DX001 (ip), vehicle: saline
[9] = dose: 100.0 mg/kg/injection, schedule: Q01DX009 (ip), vehicle: saline with Tween-80
[10] = dose: 200.0 mg/kg/injection, schedule: Q01DX009 (ip), vehicle: saline with Tween-80
[11] = dose: 400.0 mg/kg/injection, schedule: Q01DX009 (ip), vehicle: saline with Tween-80
[12] = dose: 100.0 mg/kg/injection, schedule: Q04DX003 (ip), vehicle: saline with Tween-80
[13] = dose: 200.0 mg/kg/injection, schedule: Q04DX003 (ip), vehicle: saline with Tween-80
[14] = dose: 400.0 mg/kg/injection, schedule: Q04DX003 (ip), vehicle: saline with Tween-80
[15] = dose: 50.0 mg/kg/injection, schedule: Q01DX009 (ip), vehicle: saline with Tween-80
[16] = dose: 100.0 mg/kg/injection, schedule: Q01DX001 (ip), vehicle: other
[17] = dose: 200.0 mg/kg/injection, schedule: Q01DX001 (ip), vehicle: other
[18] = dose: 400.0 mg/kg/injection, schedule: Q01DX001 (ip), vehicle: other
[19] = dose: 400.0 mg/kg/injection, schedule: Q01DX001 (ip), vehicle: saline
[20] = dose: 100.0 mg/kg/injection, schedule: Q01DX001 (ip), vehicle: carboxymethylcellulose (CMC)
[21] = dose: 200.0 mg/kg/injection, schedule: Q01DX001 (ip), vehicle: carboxymethylcellulose (CMC)
[22] = dose: 400.0 mg/kg/injection, schedule: Q01DX001 (ip), vehicle: carboxymethylcellulose (CMC)
[23] = dose: 50.0 mg/kg/injection, schedule: Q01DX001 (ip), vehicle: carboxymethylcellulose (CMC)
[24] = dose: 75.0 mg/kg/injection, schedule: Q01DX001 (ip), vehicle: saline
[25] = dose: 150.0 mg/kg/injection, schedule: Q01DX001 (ip), vehicle: saline

Measured: T/C

O=[N+]([O-])c1cc2c3ccccc3c(F)cc2c2ccccc12
inactive: [1] 98 % of control | [2] 96 % of control | [3] 98 % of control | [4] 91 % of control | [5] 98 % of control | [6] 101 % of control

N#C/C(=C1C=C(Br)/C(=N\O)C=C\1Cl)c1ccc(Cl)cc1
inactive: dose: 100.0 mg/kg/injection, schedule: Q01DX009 (ip), vehicle: acetone 95 % of control | dose: 100.0 mg/kg/injection, schedule: Q04DX003 (ip), vehicle: acetone 100 % of control | dose: 200.0 mg/kg/injection, schedule: Q04DX003 (ip), vehicle: acetone 100 % of control | dose: 400.0 mg/kg/injection, schedule: Q04DX003 (ip), vehicle: acetone 94 % of control

CC(=O)OCC1OC(S[As](C)C)C(OC(C)=O)C(OC(C)=O)C1OC(C)=O (stereo not drawn)
inactive: [1] 101 % of control | [2] 101 % of control | [3] 103 % of control | [4] 100 % of control | [6] 100 % of control

O=C1N=C(c2ccccc2)OC1C(=O)c1ccccc1 (stereo not drawn)
inactive: [7] 110 % of control | [8] 94 % of control

CC(C)(C)c1cc(CN2CCOCC2)cc(C(C)(C)C)c1O
inactive: [9] 96 % of control | [10] 104 % of control | [11] 96 % of control

CC(O)c1cc(Cl)ccc1Cl (stereo not drawn)
inactive: [9] 87 % of control | [12] 101 % of control and 107 % of control | [10] 103 % of control | [13] 107 % of control | [11] 92 % of control | [14] 98 % of control and 92 % of control

CCCCCCC(C)NCCO (stereo not drawn)
inactive: dose: 5.0 mg/kg/injection, schedule: Q01DX001 (ip), vehicle: saline 97 % of control | dose: 10.0 mg/kg/injection, schedule: Q01DX001 (ip), vehicle: saline 106 % of control | dose: 20.0 mg/kg/injection, schedule: Q01DX001 (ip), vehicle: saline 96 % of control | dose: 40.0 mg/kg/injection, schedule: Q01DX001 (ip), vehicle: saline 94 % of control | dose: 80.0 mg/kg/injection, schedule: Q01DX001 (ip), vehicle: saline 100 % of control

O=[N+]([O-])c1ccc(S(=O)CCl)cc1 (stereo not drawn)
inactive: [2] 98 % of control | [4] 105 % of control

C1CCC2(CC1)OOC1(CCCCC1)OOC1(CCCC1)OO2
inactive: [15] 104 % of control | [9] 96 % of control | [10] 110 % of control

O=C(CC(=O)OCc1ccc([N+](=O)[O-])cc1)OCc1ccc([N+](=O)[O-])cc1
inactive: dose: 25.0 mg/kg/injection, schedule: Q01DX001 (ip), vehicle: Klucel (hydroxypropylcellulose) (HPC) 104 % of control | dose: 50.0 mg/kg/injection, schedule: Q01DX001 (ip), vehicle: Klucel (hydroxypropylcellulose) (HPC) 95 % of control | dose: 100.0 mg/kg/injection, schedule: Q01DX001 (ip), vehicle: Klucel (hydroxypropylcellulose) (HPC) 92 % of control

COc1ccc(C(=O)NC(=S)Nc2cccc(C)c2C)cc1
inactive: [1] 102 % of control | [2] 93 % of control | [3] 102 % of control | [4] 89 % of control | [5] 95 % of control | [6] 98 % of control

O=C(O)/C=C(/C(=O)O)c1cccn1Cc1ccccc1
inactive: dose: 25.0 mg/kg/injection, schedule: Q01DX009 (ip), vehicle: saline with Tween-80 110 % of control | [15] 100 % of control | [9] 102 % of control

CCOC(=O)c1ccc(NC(=O)Oc2ccc(C=O)cc2OC)cc1
inactive: [1] 93 % of control | [3] 101 % of control | [5] 95 % of control

CCOC(=O)C(C1=NC(C)(C)CC(C)O1)C(C[N+](=O)[O-])c1ccccc1 (stereo not drawn)
inactive: [16] 97 % of control | [17] 97 % of control | [18] 100 % of control

NC(=O)N=C(N)N
inactive: [7] 92 % of control | [8] 90 % of control | [19] 92 % of control

CCCC(F)C(=O)OCC (stereo not drawn)
inactive: [9] 108 % of control | [12] 98 % of control | [10] 94 % of control | [13] 96 % of control | [11] 87 % of control | [14] 106 % of control

COC(=O)CNC(=O)C(Cc1ccc(OCc2ccccc2)cc1)NC(=O)OC(C)(C)C (stereo not drawn)
inactive: dose: 100.0 mg/kg/injection, schedule: Q01DX009 (ip), vehicle: saline 98 % of control | dose: 100.0 mg/kg/injection, schedule: Q04DX003 (ip), vehicle: saline 93 % of control | dose: 200.0 mg/kg/injection, schedule: Q01DX009 (ip), vehicle: saline 106 % of control | dose: 200.0 mg/kg/injection, schedule: Q04DX003 (ip), vehicle: saline 97 % of control | dose: 400.0 mg/kg/injection, schedule: Q01DX009 (ip), vehicle: saline 96 % of control | dose: 400.0 mg/kg/injection, schedule: Q04DX003 (ip), vehicle: saline 97 % of control

CC(=O)OCC1OC2OC(C)(C)OC2C1NC(=O)N(C)C(C)=O (stereo not drawn)
inactive: dose: 100.0 mg/kg/injection, schedule: Q04DX002 (ip), vehicle: saline 87 % of control | dose: 200.0 mg/kg/injection, schedule: Q04DX002 (ip), vehicle: saline 103 % of control | dose: 400.0 mg/kg/injection, schedule: Q04DX002 (ip), vehicle: saline 90 % of control

Cc1c(C(N)=O)sc2ccccc12
inactive: [20] 89 % of control | [21] 107 % of control | [22] 94 % of control

CC(=O)OC1CCC2C3CCC4=CC(=O)C(C(O)(C(F)(F)F)C(F)(F)F)CC4(C)C3CCC12C (stereo not drawn)
inactive: dose: 100.0 mg/kg/injection, schedule: Q01DX001 (sc), vehicle: steriod suspending solution 106 % of control | dose: 200.0 mg/kg/injection, schedule: Q01DX001 (sc), vehicle: steriod suspending solution 101 % of control | dose: 400.0 mg/kg/injection, schedule: Q01DX001 (sc), vehicle: steriod suspending solution 101 % of control

CC(CCC(C)(C)O)C1CCC2C3C(O)CC4CCCCC4(C)C3CC(O)C12C (stereo not drawn)
inactive: [12] 89 % of control | [13] 91 % of control | [14] 88 % of control

COc1cccc(NC2=CC(=O)C(=O)c3ccccc32)c1
inactive: [16] 88 % of control | [17] 92 % of control | [18] 101 % of control

CCCCCCCN(CCCCCCC)CC(O)c1cc2ccc(Cl)cc2c2cccnc12 (stereo not drawn)
inactive: dose: 50.0 mg/kg/injection, schedule: Q01DX009 (ip), vehicle: Klucel (hydroxypropylcellulose) (HPC) 98 % of control | [1] 96 % of control | [2] 102 % of control | [4] 104 % of control

CCSCC1C=CC(n2cnc3c(N)ncnc32)O1 (stereo not drawn)
inactive: [23] 109 % of control | [20] 109 % of control | [21] 98 % of control | [22] 109 % of control

c1ccc(C(c2cccc3ccccc23)N2CCCCC2)cc1 (stereo not drawn)
inactive: [9] 94 % of control | [12] 108 % of control | [10] 97 % of control | [13] 96 % of control | [11] 95 % of control | [14] 102 % of control

Cc1cc(=O)c2cc(C(=O)c3ccccc3)ccc2[nH]1
inactive: [7] 101 % of control | [8] 98 % of control | [19] 107 % of control

COc1ccc(OC)c2[nH]c(=O)c(CCC(=O)O)nc12
inactive: dose: 100.0 mg/kg/injection, schedule: Q04DX003 (ip), vehicle: other 96 % of control | dose: 200.0 mg/kg/injection, schedule: Q04DX003 (ip), vehicle: other 96 % of control

CN(CCCl)Cc1ccc(-c2c3ccccc3cc3c2ccc2ccccc23)cc1
inactive: dose: 25.0 mg/kg/injection, schedule: Q01DX001 (ip), vehicle: carboxymethylcellulose (CMC) 97 % of control | [23] 89 % of control | [20] 92 % of control

Oc1c2ccccc2cc2cnc3ccccc3c12
inactive: [20] 107 % of control | [21] 103 % of control | [22] 94 % of control

CCCCCCC(C)C(COC(=O)c1ccc([N+](=O)[O-])cc1)NCC (stereo not drawn)
inactive: [24] 93 % of control | [25] 96 % of control

CCCCCCCCCCCCCC[Si](Cl)(Cl)Cl
inactive: [24] 94 % of control | [25] 92 % of control
